Columns and labels:
[1] = Clearance in mouse at 1 mg/kg, iv and 30 mg/kg, po; format: ADME, organism-based; settings: in vivo
[2] = Volume of distribution in mouse at 1 mg/kg, iv and 30 mg/kg, po; format: ADME, organism-based; settings: in vivo
Mus musculus [3] = assay: Dose normalized AUC in mouse at 1 mg/kg, iv and 30 mg/kg, po; format: ADME, organism-based; settings: in vivo
[4] = Oral bioavailability in mouse at 30 mg/kg; format: ADME, organism-based; settings: in vivo
[5] = Ratio of drug uptake in brain to plasma of C57 mouse at 30 mg/kg, po after 20 hrs by LC/MS analysis; format: ADME, organism-based; design: dose 30 mg/kg, route oral; settings: read-out: BPR
Mus musculus [6] = assay: Ex-vivo inhibition of PrCP in heat inactivated 100% plasma of C57 mouse assessed as target engagement at 30 mg/kg, po after 20 hrs by FRET analysis; format: functional; design: scale not given: the % may be the effect or the level left
Mus musculus [7] = assay: Ex-vivo inhibition of PrCP in heat inactivated 100% plasma of C57 mouse assessed as target engagement calculated as [cmpd]plasma/([cmpd]plasma + Ki (heat inactivated plasma))x100 at 30 mg/kg, po after 20 hrs by FRET analysis; format: functional; design: scale not given: the % may be the effect or the level left
[8] = biological target: T1, Lysosomal Pro-X carboxypeptidase (Mus musculus, UniProt Q7TMR0); assay: Inhibition of mouse PrCP
T1 sequence (Q7TMR0 whole entry): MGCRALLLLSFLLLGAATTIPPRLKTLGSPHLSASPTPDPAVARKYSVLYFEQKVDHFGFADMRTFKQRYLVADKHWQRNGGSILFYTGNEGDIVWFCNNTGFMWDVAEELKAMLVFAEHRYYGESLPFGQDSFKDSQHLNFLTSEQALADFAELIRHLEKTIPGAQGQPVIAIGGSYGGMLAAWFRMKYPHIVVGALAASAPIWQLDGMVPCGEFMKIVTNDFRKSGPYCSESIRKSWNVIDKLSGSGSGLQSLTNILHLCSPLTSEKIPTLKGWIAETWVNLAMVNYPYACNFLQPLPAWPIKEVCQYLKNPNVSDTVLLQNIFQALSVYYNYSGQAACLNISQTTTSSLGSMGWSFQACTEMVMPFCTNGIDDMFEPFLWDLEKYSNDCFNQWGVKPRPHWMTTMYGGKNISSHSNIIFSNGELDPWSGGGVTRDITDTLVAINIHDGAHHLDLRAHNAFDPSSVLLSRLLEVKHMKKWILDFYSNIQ

[9] = Percentage unbound in 10% human plasma; format: ADME, cell-free
[10] = Percentage unbound in 10% mouse plasma; format: ADME, cell-free
Mus musculus [11] = assay: Ex-vivo inhibition of po dosed mouse PrCP by FRET analysis in presence of heat inactivated 25% plasma; format: functional, organism-based
Mus musculus [12] = assay: Ex-vivo inhibition of po dosed mouse PrCP by FRET analysis in absence of plasma; format: functional, organism-based
[13] = Stability in human liver microsomes after 30 mins by LC/MS analysis; format: ADME, Microsome; settings: read-out: Stability
[14] = Stability in mouse liver microsomes after 30 mins by LC/MS analysis; format: ADME, Microsome; settings: read-out: Stability
Mus musculus [15] = assay: Ex-vivo inhibition of po dosed mouse PrCP by FRET analysis in presence of heat inactivated 100% plasma; format: functional, organism-based

| SMILES | clearance [1] [mL/min/kg] | Vd [2] [L/kg] | AUC/dose (Mus musculus [3]) [µM·kg·h/mg] | bioavailability [4] [%] | Kp at 20 h [5] | Activity (Mus musculus [6]) [%] | Activity (Mus musculus [7]) [%] | IC50 [8] [nM] | fraction unbound [9] | fraction unbound [10] | Ki (Mus musculus [11]) [nM] | Ki (Mus musculus [12]) [nM] | remaining at 0.5 h [13] [%] | remaining at 0.5 h [14] [%] | Ki (Mus musculus [15]) [nM] |
| --- | --- | --- | --- | --- | --- | --- | --- | --- | --- | --- | --- | --- | --- | --- | --- |
| Cc1cc(C2CCN(C(=O)[C@@H]3CN(C(C)(C)C)C[C@H]3c3ccc(F)cc3F)CC2)n(-c2cc(Cl)ccc2Cl)n1 | 48 | 13 | 0.19 | 31 | 1.35 | 97.7 | 99.8 | – | – | – | – | – | – | – | – |
| Cc1nc(C2CCN(C(=O)[C@@H]3CN(C(C)(C)C)C[C@H]3c3ccc(F)cc3F)CC2)n(-c2ccc(Cl)c(C)c2)n1 | 128 | 17 | 0.05 | 20 | – | – | – | – | – | – | – | – | – | – | – |
| Cc1nc(C2CCN(C(=O)[C@@H]3C[C@@H](N(C)C)C[C@H]3c3ccc(F)cc3F)CC2)n(-c2ccc(Cl)c(C)c2)n1 | – | – | – | – | – | – | – | 41 | 0.22 | 0.32 | – | – | – | – | – |
| Cc1nc(C2CCN(C(=O)[C@@H]3C[C@H](N(C)C)C[C@H]3c3ccc(F)cc3F)CC2)n(-c2ccc(Cl)c(C)c2)n1 | – | – | – | – | – | – | – | 65 | – | – | – | – | – | – | – |
| Cc1nc(C2CCN(C(=O)[C@@H]3C[C@@](C)(N(C)C)C[C@H]3c3ccc(F)cc3F)CC2)n(-c2ccc(Cl)c(C)c2)n1 | – | – | – | – | – | – | – | 2.5 | 0.05 | 0.22 | 6.3 | 2.9 | 27 | 47 | 16.6 |
| Cc1nc(C2CCN(C(=O)[C@@H]3C[C@@](C)(N)C[C@H]3c3ccc(F)cc3F)CC2)n(-c2ccc(Cl)c(C)c2)n1 | – | – | – | – | – | – | – | 85.1 | 0.076 | 0.102 | 26.7 | 11 | 78 | 72 | 73.9 |
| Cc1nc(C2CCN(C(=O)[C@@H]3C[C@@](C)(N(C)C)C[C@H]3c3ccc(F)cc3F)CC2)n(-c2cc(Cl)ccc2Cl)n1 | – | – | – | – | – | – | – | 2 | 0.33 | 0.14 | 1 | 1 | 18 | 6 | 1 |
| Cc1nc(C2CCN(C(=O)[C@@H]3C[C@@](C)(N)C[C@H]3c3ccc(F)cc3F)CC2)n(-c2cc(Cl)ccc2Cl)n1 | – | – | – | – | – | – | – | 4.1 | 0.245 | 0.091 | 4.7 | 3.7 | 79 | 79 | 8 |
| Cc1nc(C2CCN(C(=O)[C@@H]3C[C@@](C)(N(C)C)C[C@H]3c3ccc(F)cc3F)CC2)n(-c2ccc(F)c(Cl)c2)n1 | – | – | – | – | – | – | – | – | 0.32 | 0.22 | 1.1 | 1.1 | – | – | 1.1 |
| Cc1nc(C2CCN(C(=O)[C@@H]3C[C@@](C)(N)C[C@H]3c3ccc(F)cc3F)CC2)n(-c2ccc(F)c(Cl)c2)n1 | – | – | – | – | – | – | – | 11.2 | 0.205 | 0.127 | 4.6 | 4.6 | – | – | 4.6 |

Source: ChEMBL document CHEMBL2029344, “A new class of prolylcarboxypeptidase inhibitors, part 2: the aminocyclopentanes” (Bioorg Med Chem Lett, 2012)
